Reference: patent publication US5128366A, “Pyrrole derivatives” (Shinogi & Co., Ltd., priority 1990, dated 1992)

target: T1, HMG-CoA reductase (Rattus norvegicus, UniProt P51639); assay: HMG-CoA reductase inhibitory effect in rat liver microsome, [3-14C]HMG-CoA, TLC and scintillation counting; format: biochemical; details: comparative activity, Mevinolin (sodium salt) as reference drug = 100, sodium salt of the test compound, 37° C., 30 minutes
T1 construct: from tissue; host or cells: liver microsomes of Sprague-Dawley rats fed 2% cholestyramine for 2 weeks
T1 sequence (P51639 1-887): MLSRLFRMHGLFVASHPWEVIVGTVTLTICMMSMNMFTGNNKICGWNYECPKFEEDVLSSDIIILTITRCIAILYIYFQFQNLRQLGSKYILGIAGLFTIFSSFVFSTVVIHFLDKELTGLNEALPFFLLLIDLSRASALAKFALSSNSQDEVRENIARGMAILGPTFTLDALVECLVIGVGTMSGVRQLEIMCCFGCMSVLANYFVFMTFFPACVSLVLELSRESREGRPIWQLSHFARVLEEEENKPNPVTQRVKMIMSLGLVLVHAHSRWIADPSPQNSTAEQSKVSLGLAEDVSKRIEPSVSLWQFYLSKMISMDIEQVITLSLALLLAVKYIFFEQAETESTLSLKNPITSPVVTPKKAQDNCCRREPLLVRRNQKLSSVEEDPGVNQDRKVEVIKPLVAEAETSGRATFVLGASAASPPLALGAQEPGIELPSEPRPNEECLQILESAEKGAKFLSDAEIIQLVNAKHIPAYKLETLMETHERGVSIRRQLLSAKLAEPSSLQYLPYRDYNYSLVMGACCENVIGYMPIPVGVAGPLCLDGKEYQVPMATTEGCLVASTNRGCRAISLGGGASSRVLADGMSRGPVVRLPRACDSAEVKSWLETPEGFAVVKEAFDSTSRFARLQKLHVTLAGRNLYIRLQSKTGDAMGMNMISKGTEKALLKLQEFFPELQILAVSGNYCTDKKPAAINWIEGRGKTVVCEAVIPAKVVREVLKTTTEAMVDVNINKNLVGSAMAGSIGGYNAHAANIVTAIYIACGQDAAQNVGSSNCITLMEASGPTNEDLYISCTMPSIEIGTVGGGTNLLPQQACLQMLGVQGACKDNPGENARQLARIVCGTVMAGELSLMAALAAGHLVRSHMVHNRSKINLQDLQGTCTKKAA
Method: (1) Preparation of Rat Liver Microsome
Sprague-Dawley rats, which were in free access to ordinary diets containing 2% cholestyramine and water for 2 weeks, were used for the preparation of rat liver microsome, which were then purified according to the manner by Kuroda et al., Biochem. Biophys. Act, 486, 70 (1977). The microsomal fraction obtained by centrifugation at 105000×g was washed once with a buffered solution containing 15 mM nicotinamide and 2 mM magnesium chloride (in a 100 mM potassium phosphate buffer, pH 7.4). It was homogenized with a buffer containing nicotinamide and magnesium chloride at the same weight as the liver employed. The thus obtained homogenate was cooled down to and kept at -80° C.
(2) Measurement of the HMG-CoA Reductase Inhibitory Activities
The rat liver microsome (100 μl), which was preserved at -80° C., was […] at 0° C. and diluted with 0.7 ml of a cold potassium phosphate buffer (100 mM, pH 7.4 ). This was mixed with 0.8 ml of 50 mM EDTA (buffered with the aforementioned potassium phosphate buffer) and 0.4 ml of 100 mM dithiothreitol solution (buffered with the aforementioned potassium phosphate buffer), and the mixture was kept at 0° C. The microsome solution, 1.675 ml, was mixed with 670 μl of 25 mM NADPH (buffered with the aforementioned potassium phosphate buffer), and the solution was added to the solution of 0.5 mM [3^-14 C]HMG-CoA (3 mCi/mmol). Potassium phosphate buffer of sodium salt of the test compound 5 μl is added to the mixture of microsome and HMG-CoA 45 μl, and the resulting mixture was incubated at 37° C. for 30 minutes and cooled. After termination of the reaction by addition of 10 μl of 2N-HCl, the mixture was incubated again at 37° C. for 15 minutes and then 30 μl of this mixture was applied to thin-layer chromatography with silica gel of 0.5 mm in thickness (Merck AG, Art 5744). The chromatograms were developed in toluene/acetone (1/1) and the sections, whose Rf value was between 0.45 to 0.6, were scraped. The obtained products were put into a vial containing 8 ml of scintillator to measure specific radio-activity with a scintillation counter.

Q: Which “HMG-CoA reductase inhibitory activities” value does the source give for CC(C)c1c(/C=C/[C@@H](O)C[C@@H](O)CC(=O)O)c(-c2ccc(F)cc2)cn1S(C)(=O)=O (relative stereo) [Ia-10] here?
A: 263

Q: Which “HMG-CoA reductase inhibitory activities” value does the source give for Cc1c(-c2ccc(F)cc2)c(/C=C/[C@@H](O)C[C@@H](O)CC(=O)O)c(C(C)C)n1S(=O)(=O)Cc1ccccc1 (relative stereo) [Ia-19, 7-[4-(4-Fluorophenyl)-2-isopropyl-5-methyl-(1-benzylsulfonyl)-pyrrol-3-yl]-(3R*,5S*)-dihydroxy-(E)-6-heptenate] here?
A: 105

Q: For CCS(=O)(=O)n1c(C)c(-c2ccc(F)cc2)c(/C=C/[C@@H](O)C[C@@H](O)CC(=O)O)c1C(C)C (relative stereo) [Ia-18, 7-[4-(4-Fluorophenyl)-2-isopropyl-5-methyl-(1-ethylsulfonyl)pyrrol-3-yl]-(3R*,5S*)-dihydroxy-(E)-6-heptenate], which “HMG-CoA reductase inhibitory activities” value is on record?
A: 228

Q: How did the “HMG-CoA reductase inhibitory activities” value turn out when Cc1c(-c2ccc(F)cc2)c(/C=C/[C@@H](O)C[C@@H](O)CC(=O)O)c(C(C)C)n1S(C)(=O)=O [Id-2, (+) Sodium 7-[4-(4-fluorophenyl)-2-isopropyl-5-methyl-(1-methylsulfonyl)pyrrol-3-yl]-(3R,5S)-dihydroxy-(E)-6-heptenate] was run?
A: 418

Q: With CC(C)c1c(/C=C/[C@@H](O)C[C@@H](O)CC(=O)O)c(-c2ccc(F)cc2)c(-c2ccc(F)cc2)n1S(C)(=O)=O (relative stereo) [Ia-17, 7-.upsilon.4,5-Di-(4-fluorophenyl)-2-isopropyl-1-(methylsulfonyl)-pyrrol-3-yl]-(3R*,5S*)-dihydroxy-(E)-6-heptenoic acid] as the compound, how does the “HMG-CoA reductase inhibitory activities” value read?
A: 293

Q: How did the “HMG-CoA reductase inhibitory activities” value turn out when CC[C@H](C)C(=O)O[C@H]1C[C@@H](C)C=C2C=C[C@H](C)[C@H](CC[C@@H](O)C[C@@H](O)CC(=O)O)[C@H]21 [Mevinolin Na, Mevinolin, reference compound] was run?
A: 100
